One data set concerns AGS cells. Nature of the data set: cells. As to conditions: for viability at 75 µM: Homo sapiens, 48 h. The method, then: (§1) FIG. 11. […] Parallel wells of untreated cells were used as negative control. Cell viability was assessed by using the trypan blue assay. Percentage of alive cells for each treatment are calculated as percentage using the untreated cell as reference. […] Statistical differences were tested using Student's t test. All statistical tests were two sided. p=***<0.001, **<0.01, *<0.05, ns=not significant.
(§2) FIG. 14. […] Parallel wells of untreated cells were used as negative control. Cell viability was assessed by using the trypan blue assay. Percentage of alive cells for each treatment are calculated as percentage using the untreated cell as reference. […] Statistical differences were tested using Student's t test. All statistical tests were two sided. p=*<0.05, **<0.01, ***<0.001.
(§3) To determine the effects of eM and eF-DnaKs on HCT116 and AGS cells lines treated with different anti-cancer drugs, cells were plated 200,000 cells/well in 6-wells plates. After 24 h, both eM-DnaK and eF-DnaK were added to the cultures at a concentration of 10 ug/ml. […] Parallel cultures of untreated cells were the negative controls. […] After 48 h of treatment with the anti-cancer drugs, cell monolayers were washed in PBS, trypsinized and cell viability was measured using the trypan blue assay. The trypan blue exclusion assay allows for a direct identification and enumeration of live (unstained) and dead (blue) cells in the given population.
(§4) More in detail, we pre-treated both exogenous DnaKs with ARV-1502 (25 μg/ml) before adding them to the culture of HCT116 or AGS cells. After 3 h of incubation the complex was added to the culture. After 24 h the cells were treated with the anti-cancer drugs and then subjected to count with trypan blue as previously described. Parallel cultures of cells treated with the drugs and DnaKs not complexed with ARV-1502 were used as control.

Data set [1] has as its system HCT116 cells. Kind of data set: cells. As to conditions: for viability at 75 µM: Homo sapiens, HCT-116, 48 h, 48 h. The method, then: as §1, §2, §3, §4
Data set [2] has as its system HCT116 cells infected with Mycoplasma. Kind of data set: Cell viability of Mycoplasma-infected HCT116 cells (LIVE/DEAD kit). In kind it is cell-based, human. Conditions: 5FU or Nutlin-3, 48 hours. On the procedure:
FIG. 2. DnaK negatively affects p53 activities and Mycoplasma infection reduces the effect of anti-cancer drugs. (A) DnaK reduces p53-associated activities in HCT116 cells. Levels of p53, p21, Bax and PUMA proteins were analyzed in control, vector and DnaK transfected cells at different time-points (2, 8 and 16 hours). Expression of DnaK was verified using the anti-V5 antibody. NT: not transfected; VT: vector transfected; DnaK: DnaK transfected; M: media; D: DMSO; N: Nutlin. β-act: β-actin. Band intensity was measured by densitometric analysis. Numbers above bands indicate fold increase above level of nutlin-treated DnaK-transfected cells, normalized for the levels of β-actin. (B) DnaK increases cell cycle progression. HCT116 cells were transfected with a DnaK-expressing vector and subsequently analyzed for cell cycle progression. Data were collected 16-24 hours after transfection. Results represent mean and standard deviations of 5 different experiments. […] Results are expressed as percent cell viability over control (uninfected cells in media alone were considered as 100%). Mean difference is shown. *=p<0.001—calculated using Poisson regression.
HCT116 cells (colon carcinoma cell line) were obtained from ATCC. […] In all experiments cell viability was calculated as a percentage relative to the control cultures. […]

The subject of data set [3] is primary murine cancer cells constitutively expressing DnaK. Kind of data set: cells. As to conditions: Mus musculus, read-out: cell viability.
Data set [4] deals with eM-DnaK (Mycoplasma fermentans DnaK). Nature of the data set: Surface plasmon resonance (SPR) binding of ARV-1502 to immobilized eM-DnaK. As to conditions: 2274.9 RU eM-DnaK on CM5 chip, HBS-EP, 25° C., preliminary kinetic analysis. On the procedure:
(§5) FIG. 17. A) Direct binding of eM-DnaK to ARV-1502 as determined by surface plasmon resonance (SPR). Association of ARV-1502 at different concentrations on 2274.9 response units of eM-DnaK immobilized on a CM5 biosensor chip proceeded at a flow rate of […] for 250 sec, followed by a 600 sec dissociation in HBS-EP.
Surface plasmon resonance (SPR) binding studies of DnaK and ARV-1502 were performed at 25° C. on a BIAcore T100 System (BIAcore, Inc., Piscataway, NY). We used as assay buffer HBS-EP, containing 10 mM HEPES, 150 mM NaCl, 0.05% surfactant P20, pH 7.4, 3 mM EDTA. DnaK (2274.9 RUs) was immobilized on CM5 sensor chips using the amine-coupling chemistry recommended by the manufacturer. Analytes were introduced into the flow cells at 35 μl/min in the running buffer. Association and dissociation were assessed for 250 seconds and 600 seconds. Resonance signals were corrected for nonspecific binding by subtracting the background of the control flow-cell. After each analysis, the sensor chip surfaces were regenerated with 10 mM glycine solution (pH 2.0) with MgCl 1M and equilibrated with the buffer before the next injection.

The test system of data set [5] is HCT116 cells. Nature of the data set: Western blot of eM-DnaK entry into HCT116 cells after incubation with ARV-1502. In kind it is cell-based, human. As to conditions: eM-DnaK incubated 3 hours with ARV-1502, added to cells 24 hours, then cisplatin 48 hours. On the procedure: as §5
Western blot was performed to verify the expression of DnaK in the mouse primary cancer cells, in the internalization of the exogenous DnaKs and to validate DnaK binding with ARV-1502. […] After 72 h since eM-DnaK treatment, cell monolayers were washed in cold PBS, trypsinized and resuspended in RIPA lysis buffer (Sigma-Aldrich, St. Louis, MO) in the presence of protease inhibitors (Sigma-Aldrich, St. Louis, MO). The protein concentration was measured by the Bradford assay (Bio-Rad Laboratories, Hercules, CA). Thirty micrograms of protein were resolved by SDS/PAGE, transferred to a polyvinylidene difluoride (PVDF) membrane using trans-blot turbo transfer system (Bio-Rad Laboratories, Hercules, CA), blocked in 5% nonfat dried milk in Tris-Buffered Saline (TBS) and probed overnight with either a mouse mAb against the V5 tag (#R960-25, Thermo Fisher Scientific, Walthman, MA) to detect the presence of eM-DnaK or a mouse mAb against […] (8H10D10) (#3700, Cell Signaling Technology, Danvers, MA). […]
Background: A western blot detects proteins with antibodies after separation by electrophoresis.

The subject of data set [6] is primary murine cancer cells constitutively expressing DnaK.
The target in another data set is Escherichia coli DnaK (Escherichia coli, UniProt P0A6Y8). Conditions: previously demonstrated; cited from earlier work.
Chain of Escherichia coli DnaK (P0A6Y8 whole entry): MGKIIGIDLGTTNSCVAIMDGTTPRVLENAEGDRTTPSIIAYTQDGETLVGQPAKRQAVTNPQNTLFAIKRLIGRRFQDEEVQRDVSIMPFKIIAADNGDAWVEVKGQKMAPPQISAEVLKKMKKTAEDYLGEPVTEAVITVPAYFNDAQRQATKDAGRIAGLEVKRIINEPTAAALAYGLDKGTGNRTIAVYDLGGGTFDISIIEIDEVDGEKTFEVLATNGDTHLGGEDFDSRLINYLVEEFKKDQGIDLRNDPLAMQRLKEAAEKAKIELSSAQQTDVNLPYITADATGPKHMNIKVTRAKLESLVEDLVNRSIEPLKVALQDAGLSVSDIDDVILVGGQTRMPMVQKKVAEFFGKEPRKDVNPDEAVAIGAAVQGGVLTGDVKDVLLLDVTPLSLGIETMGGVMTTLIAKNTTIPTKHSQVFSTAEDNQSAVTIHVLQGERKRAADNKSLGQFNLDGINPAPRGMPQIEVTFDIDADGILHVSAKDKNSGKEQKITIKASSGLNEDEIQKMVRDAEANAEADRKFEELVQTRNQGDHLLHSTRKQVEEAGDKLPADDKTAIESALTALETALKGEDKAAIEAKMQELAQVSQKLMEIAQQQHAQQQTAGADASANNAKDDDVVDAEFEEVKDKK
In a further data set the target is human Hsp70 (Homo sapiens, UniProt P0DMV8). As to conditions: previously demonstrated; cited from earlier work.
Chain of human Hsp70 (P0DMV8 whole entry): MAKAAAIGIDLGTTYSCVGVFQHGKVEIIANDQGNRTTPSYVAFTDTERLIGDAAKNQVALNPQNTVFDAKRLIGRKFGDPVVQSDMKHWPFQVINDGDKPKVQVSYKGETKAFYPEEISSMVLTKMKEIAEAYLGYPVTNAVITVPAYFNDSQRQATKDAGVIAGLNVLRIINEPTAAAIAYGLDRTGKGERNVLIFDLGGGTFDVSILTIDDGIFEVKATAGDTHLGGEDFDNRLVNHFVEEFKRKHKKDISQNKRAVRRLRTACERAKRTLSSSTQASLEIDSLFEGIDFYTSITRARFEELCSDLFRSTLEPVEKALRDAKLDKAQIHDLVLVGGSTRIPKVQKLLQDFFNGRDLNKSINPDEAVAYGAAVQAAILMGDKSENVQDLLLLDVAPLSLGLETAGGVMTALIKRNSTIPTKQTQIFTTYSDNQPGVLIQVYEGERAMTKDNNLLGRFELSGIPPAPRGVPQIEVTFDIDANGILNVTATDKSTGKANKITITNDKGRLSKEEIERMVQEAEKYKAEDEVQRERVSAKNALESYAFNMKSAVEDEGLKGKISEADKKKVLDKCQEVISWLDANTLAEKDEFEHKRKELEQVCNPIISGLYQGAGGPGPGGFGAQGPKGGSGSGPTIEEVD

A word on the Kd: it is the equilibrium constant for the complex coming apart.

Like-named read-outs stand apart in the source and are kept apart here. Where a SMILES comes first, the peptide text is derived from it. [ ]: non-standard residue; d: D form. Ac6c = NC1(C(=O)O)CCCCC1

Take `O=c1[nH]cc(F)c(=O)[nH]1` [5FU, 5-Fluorouracil]: the viability at 75 µM in the data set on AGS cells (read-out: cell viability, AGS, drug alone (eF-DnaK experiment), Cisplatin 2 μM or 5FU 75 μM, 48 h, % of untreated cells) came out at 31%; in the data set with AGS cells (read-out: cell viability, AGS, drug alone (eM-DnaK experiment), Cisplatin 25 μM or 5FU 75 μM, 48 h, % of untreated cells), 15%; in the data set on AGS cells (read-out: cell viability, AGS, drug in the presence of eF-DnaK (10 ug/ml), Cisplatin 2 μM or 5FU 75 μM, 48 h), 42%; in the data set on AGS cells (read-out: cell viability, AGS, drug in the presence of eM-DnaK (10 ug/ml), Cisplatin 25 μM or 5FU 75 μM, 48 h), 33%; in the data set with HCT116 cells [1] (read-out: cell viability, HCT116, drug alone (eF-DnaK experiment), Cisplatin 2 μM or 5FU 75 μM, % of untreated cells) it was 14%; with HCT116 cells [1] (read-out: cell viability, HCT116, drug alone (eM-DnaK experiment), Cisplatin 25 μM or 5FU 75 μM, % of untreated cells), 14%. The viability at 75 µM came out at 17% in the data set on HCT116 cells [1] (read-out: cell viability, HCT116, drug in the presence of eF-DnaK (10 ug/ml), Cisplatin 2 μM or 5FU 75 μM); 16% in the data set with HCT116 cells [1] (read-out: cell viability, HCT116, drug in the presence of eM-DnaK (10 ug/ml), Cisplatin 25 μM or 5FU 75 μM); 55% in [3]. In addition, the “effect of Mycoplasma infection on drug activity (cell viability)” value in [2] is given as “resistance to these anti-cancer drugs”.
Molecule `CC(C)C[C@H](NC(=O)[C@H](Cc1ccc(O)cc1)NC(=O)[C@@H]1CCCN1C(=O)[C@H](CCCNC(=N)N)NC(=O)[C@@H]1CCCN1C(=O)[C@H](CCCCN)NC(=O)[C@H](CC(=O)O)NC(=O)[C@@H]1CCCN1C(=O)[C@H](CCCNC(=N)N)NC(=O)C1(N)CCCCC1)C(=O)N1CCC[C@H]1C(=O)N[C@@H](CCCNC(=N)N)C(=O)N1CCC[C@H]1C(=O)N[C@@H](CCCNC(=N)N)C(=O)N1CCC[C@H]1C(=O)N1CCC[C@H]1C(=O)N[C@@H](CCCNC(=N)N)C(=O)N1CCC[C@H]1C(=O)N[C@H](C(=O)N[C@@H](CCCNC(=N)N)C(N)=O)C(C)C` [ARV-1502] (H-[Ac6c]RPDKPRPYLPRPRPPRPVR-NH2; N-terminus and C-terminus assumed) registered an equilibrium dissociation constant (Kd) in data set [4] of 1900 nM. Besides, the “reduction in cell viability” value in the data set with AGS cells (ARV-1502 alone, on average (data not shown)) was 5-8%; in the data set on HCT116 cells [1] (HCT116, ARV-1502 alone, on average (data not shown)), 5-8%. For the same molecule, the “restoration of anti-cancer activity of cisplatin and 5FU” value in the data set on AGS cells (in the presence of eF-DnaK pre-treated with ARV-1502 (25 μg/ml)) is recorded as “able to restore the drugs' anti-cancer activity”; with AGS cells (in the presence of eM-DnaK pre-treated with ARV-1502 (25 μg/ml)), “restoration of the original anti-cancer activity of each drug”; in the data set on HCT116 cells [1] (HCT116, in the presence of eF-DnaK pre-treated with ARV-1502 (25 μg/ml)) it was “able to restore the drugs' anti-cancer activity”; with HCT116 cells [1] (HCT116, in the presence of eM-DnaK pre-treated with ARV-1502 (25 μg/ml)) it was “restoration of the original anti-cancer activity of each drug”. Besides, the “eM-DnaK entry into HCT116 cells” value in the data set with HCT116 cells [5] was “does not prevent eM-DnaK entry into HCT116 cells”. The molecule further yielded an inhibitory effect in data set [6] (ARV-1502 alone) of 11%. For the same molecule, in data set [6] (ARV-1502 with cisplatin or 5FU versus drug alone, for both drugs), the improved anti-cancer effect is recorded as 25%. Moreover, on Escherichia coli DnaK, the “DnaK binding and ATPase activity” value is “bind the Escherichia coli DnaK substrate-binding domain and to reduce its ATPase activity”. For the same molecule, on human Hsp70, the “interaction with human Hsp70” value is recorded as “without interacting with human Hsp70”.
